US20100099762A1, “COMBINATION THERAPY” (THE MENTAL HEALTH RESEARCH INSTITUTE OF VICTORIA, priority 2006, published 2010)
Marks after values point to notes of the source that are not given here.

What was measured:
[1] = oral NAC; cited from earlier work
schizophrenia = assay: Randomised double blind multicentre placebo controlled trial of NAC in combination with an antipsychotic agent in schizophrenia; format: in vivo, human
Description: There is preclinical evidence of a reduction in antioxidant defences in schizophrenia, particularly a reduction in glutathione, which is a primary endogenous antioxidant defence. N-acetyl cysteine (NAC) is a bioavailable precursor of glutathione. This Example is a randomised double blind multicentre placebo controlled trial of the use of NAC in combination with an antipsychotic agent in the treatment of schizophrenia. A total of 140 individuals were randomised to receive 2 g daily of NAC in two divided doses, or placebo, together with their normal dosage of antipsychotic agent.
Participants were assigned randomly and consecutively to treatment with NAC or placebo in a double blind fashion. The randomisation log was generated by an independent individual using the traditional coin tossing method. The investigators and clinicians remained blind until data analysis was completed. The person generating the randomisation schedule was not involved in participant interviews, either for participant eligibility or outcome measurements.
All participants remained on their usual antipsychotic medication for the duration of the trial. The dose of the primary therapy was monitored. Participants were recruited through advertisements, referral by case clinicians and through database screening. All participants provided written informed consent as part of complying with the protocol.
All randomised participants received two NAC (500 mg) capsules twice daily, to a total dose of 2 g daily, or matching placebo capsules. Human dosing can be up to 5 g/day without adverse effects (Louwerse E. S. et al., 1995). A daily dose that is within the range of efficacy in published clinical trials (Adair J. C. et al., 2001, Van Schooten F. J. et al., 2002, and Behr J, et al., 2002) was selected. Once per day dosing is desirable in the drug treatment of schizophrenia, where medication compliance is known to be a challenge in management. However, steady state plasma levels cannot be achieved with a once daily oral dose of NAC as the plasma half-life is only 2-3 hours (Holdiness M. R., 1991 and Kelly G. S., 1998). While a twice-daily (BID) dosing regimen would also not be expected to achieve steady state plasma levels, dose intervals beyond BID were considered to markedly increase the risk of non-compliance in this population.
To be included, the patients were required to meet Diagnostic and Statistical Manual of Mental Disorders, fourth edition (DSM-IV) (Association AP, 1994) criteria for schizophrenia and have a PANSS total score of ≧55, or at least two items in the positive and/or negative items being >3, or have a CGI-S≧3. They needed to have the capacity to consent to the study, and be aged between 18 and 65. Both inpatients and outpatients were eligible. Participants needed to be currently taking an antipsychotic agent and to be utilising effective contraception if female and of childbearing age. Exclusion criteria included patients with abnormal renal, hepatic, thyroid or haematological findings, patients with a systemic medical disorder including asthma, allergies or any history of bronchospasm, respiratory insufficiency and recent gastrointestinal ulcers and females who were positive on pregnancy screening testing at baseline. Participants who were taking a mood stabiliser (e.g. lithium, valproate and carbamazepine) were excluded as were those currently taking drugs that are known to prevent GSH depletion (500+mg of NAC/day, 200+ug of selenium/day or 500+IU of Vitamin E/day).
Withdrawal from the trial occurred if participants ceased taking their trial medication for seven consecutive days, or ceased effective contraception, or became pregnant. A change in primary antipsychotic from one medication to another required participants to be withdrawn from the study. Similarly, the addition of a mood stabiliser required withdrawal of the participant. Dose changes to existing medications were not an exclusion criterion, and this was monitored. […]

[2] = baseline to week 8, LOCF ANCOVA
[3] = baseline to week 24, LOCF ANCOVA
[4] = baseline to week 24, LOCF ANCOVA with treatment by investigator interaction
[5] = score at week 24, end of treatment

Mean gain in weight at week 24 (schizophrenia; NAC group, n=33): 0.394 kg
Mean weight gain at week 8 (schizophrenia; NAC group, n=43): 1.372 kg
Compound: CC(=O)N[C@@H](CS)C(=O)O [NAC, N-acetyl cysteine]
Plasma half-life [1]: 2 to 3 h
Number of patients with clinician-observed improvement (CGI-S), NAC group versus placebo group (schizophrenia; 16 weeks of treatment): more than two-fold greater
Range of CGI-S improvement from baseline in improved subjects (schizophrenia; 16 weeks of treatment): 1-3 points
Effects on safety parameters, including vital signs, weight and clinical biochemistry values (schizophrenia; 24 weeks NAC 2 g daily): no significant effects
GAF mean overall change from baseline to endpoint, NAC treatment group (schizophrenia; ANCOVA, within-group): +4.5 points
PANSS scales, NAC versus placebo over all visits (schizophrenia; MMRM): did not detect a significant difference
PANSS-Negative items 3 and 6 over all visits (schizophrenia; MMRM of individual items): significant (p<0.05) benefit
Individual PANSS items at specific visits (schizophrenia; MMRM of individual items, weeks 2, 4, 8, 16, 20, 24): significant (p<0.05) improvements on several items
GAF average improvement over all visits, NAC group (schizophrenia; MMRM, within-group): +3.1 points
CGI-S: Within NAC Group Week 8 Mean Overall Change (95% CI) (schizophrenia; NAC 2 g daily plus usual antipsychotic, baseline to week 8, LOCF ANCOVA): −0.32 (−0.48, −0.15)**
Functioning as measured by the GAF scale or the SOFAS, between groups (schizophrenia; NAC versus placebo): no between-group differences
Effect size (Cohen's d statistic) on the BAS (schizophrenia; after 24 weeks of NAC treatment): 0.44
BAS: Within NAC Group Week 8 Mean Overall Change (95% CI) (schizophrenia; akathisia, baseline to week 8, LOCF ANCOVA): −0.23 (−0.58, 0.11)
BAS: Within NAC Group Week 24 Mean Overall Change (95% CI) (schizophrenia; akathisia, baseline to week 24, LOCF ANCOVA): −0.42 (−0.77, −0.06)*
AIMS: Within NAC Group Week 8 Mean Overall Change (95% CI) (schizophrenia; [2]): 0.08 (−0.48, 0.65)
GAF: Within NAC Group Week 8 Mean Overall Change (95% CI) (schizophrenia; [2]): 2.7 (0.22, 5.3)*
PANSS General: Within NAC Group Week 8 Mean Overall Change (95% CI) (schizophrenia; [2]): −1.7 (−3.2, −0.26)*
PANSS Negative: Within NAC Group Week 8 Mean Overall Change (95% CI) (schizophrenia; [2]): −0.18 (−1.2, 0.82)
PANSS Positive: Within NAC Group Week 8 Mean Overall Change (95% CI) (schizophrenia; [2]): −1.6 (−2.6, −0.64)*
PANSS Total: Within NAC Group Week 8 Mean Overall Change (95% CI) (schizophrenia; [2]): −3.6 (−6.3, −0.90)*
SAS: Within NAC Group Week 8 Mean Overall Change (95% CI) (schizophrenia; [2]): −0.05 (−0.30, 0.21)
SOFAS: Within NAC Group Week 8 Mean Overall Change (95% CI) (schizophrenia; [2]): −0.25 (−3.5, 3.0)
AIMS: Within NAC Group Week 24 Mean Overall Change (95% CI) (schizophrenia; [3]): −0.44 (−1.03, 0.16)
CGI-S: Within NAC Group Week 24 Mean Overall Change (95% CI) (schizophrenia; [3]): −0.35 (−0.56, −0.14)*
GAF: Within NAC Group Week 24 Mean Overall Change (95% CI) (schizophrenia; [3]): 4.5 (1.5, 7.5)*
PANSS Positive: Within NAC Group Week 24 Mean Overall Change (95% CI) (schizophrenia; [3]): −2.3 (−3.49, −1.09)**
SAS: Within NAC Group Week 24 Mean Overall Change (95% CI) (schizophrenia; [3]): −0.17 (−0.46, 0.13)
SOFAS: Within NAC Group Week 24 Mean Overall Change (95% CI) (schizophrenia; [3]): −0.69 (−4.99, 3.6)
PANSS General: Within NAC Group Week 24 Mean Overall Change (95% CI) (schizophrenia; [4]): −4.4 (−6.39, −2.48)^d**
PANSS Negative: Within NAC Group Week 24 Mean Overall Change (95% CI) (schizophrenia; [4]): −1.6 (−2.71, −0.46)^d
PANSS Total: Within NAC Group Week 24 Mean Overall Change (95% CI) (schizophrenia; [4]): −8.8 (−12.2, −5.5)^d**
Adverse events, NAC group compared to placebo group (schizophrenia; checklist of 44 somatic items): No reported event was significantly more common
Eye irritation, NAC treatment group compared to placebo (schizophrenia; checklist of 44 somatic items): significantly less
SAS or AIMS scores, placebo versus NAC over all visits (schizophrenia; over all visits): no significant differences
CGI-I: Within NAC Group Week 8 Mean (95% CI) (schizophrenia; score at that time point (no baseline score), week 8, NAC 2 g daily plus antipsychotic): 3.1 (2.9, 3.4)
CGI-I: Within NAC Group Week 24 Mean (95% CI) (schizophrenia; score at that time point (no baseline score), week 24): 2.9 (2.6, 3.1)
CGI-I: NAC Mean (95% CI) at post-treatment discontinuation (schizophrenia; score at that time point, washout, week 28): 2.9 (2.5, 3.4)
AIMS: NAC Mean Week 24 (SD) (schizophrenia; [5]): 2.2 (3.5)
BAS: NAC Mean Week 24 (SD) (schizophrenia; [5]): 0.42 (0.93)
CGI-I: NAC Mean Week 24 (SD) (schizophrenia; [5]): 2.9 (0.93)
CGI-S: NAC Mean Week 24 (SD) (schizophrenia; [5]): 3.5 (1.0)
GAF: NAC Mean Week 24 (SD) (schizophrenia; [5]): 54.4 (15.4)
